Counter-ions that a name gives are not always drawn.
Target: glutaminyl cyclase (QC, QPCT) (Homo sapiens, UniProt Q16769)
Assay: glutamic dehydrogenase-coupled assay, NADH absorbance at […] nm
Assay type: biochemical

Sequence of glutaminyl cyclase (QC, QPCT) (Q16769 33-361): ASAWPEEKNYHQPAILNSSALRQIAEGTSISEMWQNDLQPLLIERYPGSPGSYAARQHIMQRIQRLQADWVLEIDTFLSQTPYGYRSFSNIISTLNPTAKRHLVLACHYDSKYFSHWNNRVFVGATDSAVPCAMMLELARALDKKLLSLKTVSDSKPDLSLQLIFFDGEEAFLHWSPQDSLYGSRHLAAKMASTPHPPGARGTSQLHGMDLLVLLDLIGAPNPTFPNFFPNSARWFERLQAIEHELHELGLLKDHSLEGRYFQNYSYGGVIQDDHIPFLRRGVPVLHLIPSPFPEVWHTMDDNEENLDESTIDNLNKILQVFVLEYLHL

First: Cc1cnc(C(=O)O)c[n+]1[O-] [Acipimox]
Second: Cc1cccc(Cc2c[nH]cn2)c1C [Detomidine HCl]
The Ki of the first is 2.4-fold higher: 6.23 ± 0.85 mM for the first, 2.58 ± 0.28 mM for the second.

First: CC[C@@H]1C(=O)OC[C@@H]1Cc1cncn1C [Pilocarpine HCl]
Second: O=C(/C=C/c1cccc(S(=O)(=O)Nc2ccccc2)c1)NO [Belinostat (PXD101)]
The Ki of the first is 4.4-fold higher: 13.2 ± 7.27 mM for the first, 2.98 ± 0.67 mM for the second.
